According to PubChem BioAssay AID1794802 (Yongcheng Song lab at Baylor College of Medicine, 2022):
pEC50: −log10 of the molar value. Activity calls are given as the source filed them.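 Rule for the calls: active = EC50 under 50 µM in a live-cell viability test; inactive = the rest.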

Tested on: Molm13 AML cells, XTT viability
Assay: Molm13 antiproliferative activity – cell-based, XTT viability, AHD inhibitor project, dose response (AID 1794802)

Row | SMILES | pEC50 | EC50
1 | O=C(NCC1CCNCC1)c1c[nH]c2cc(-c3ccc(N4CCCCC4)cc3)ccc12 | 4.54 | 
2 | O=C(NCC1CCNCC1)c1c[nH]c2cc(-c3ccc(N4CCCC4)cc3)ccc12 | 4.30 | 
3 | O=C(NCC1CCNCC1)c1coc2cc(-c3ccc(N4CCCCC4)cc3)ccc12 | 4.89 | 
4 | O=C(NCC1CCNCC1)c1cc2cc(-c3cn[nH]c3)ccc2[nH]1 |  | > 51 µM (inactive)
5 | O=C(NCC1CCNCC1)c1cc2cc(-c3ccc(N4CCCCC4)cc3)ccc2s1 | 5.29 | 
6 | NCc1ccc(-c2ccc3cc(C(=O)NCC4CCNCC4)oc3c2)cc1 |  | > 51 µM (inactive)
7 | O=C(NCC1CCNCC1)c1cc2ccc(-c3ccc(N4CCCCC4)cc3)cc2s1 | 5.33 | 
8 | O=C(NCC1CCNCC1)c1cc2ccc(-c3ccc(N4CCCC4)cc3)cc2s1 | 5.03 | 
9 | O=C(NCC1CCNCC1)c1cc2cc(-c3ccc(N4CCCCC4)cc3)ccc2[nH]1 | 5.00 | 
10 | NC(=O)c1ccc(-c2ccc3cc(C(=O)NCC4CCNCC4)sc3c2)cc1 |  | > 51 µM (inactive)
